This note sets out measurements from publication PMC11302589 (Organic & biomolecular chemistry, 2012).

The target of assay [1] is Streptococcus pneumoniae sialidase NanB (Streptococcus pneumoniae serotype 4, UniProt Q54727). The experiment in a line: biochemical.
In assay [2] the target is Salmonella typhimurium sialidase (Salmonella typhimurium, UniProt P29768). The experiment in a line: biochemical.
Assay [3] has as its target Vibrio cholerae sialidase (type III) (Vibrio cholerae serotype O1, UniProt P0C6E9). Briefly: biochemical. The class given is biochemical. Particulars: for IC50: V. cholerae.
In assay [4] the target is T1, β-galactosidase (Aspergillus oryzae, UniProt Q2UCU3).
T1 sequence (Q2UCU3 19-1005): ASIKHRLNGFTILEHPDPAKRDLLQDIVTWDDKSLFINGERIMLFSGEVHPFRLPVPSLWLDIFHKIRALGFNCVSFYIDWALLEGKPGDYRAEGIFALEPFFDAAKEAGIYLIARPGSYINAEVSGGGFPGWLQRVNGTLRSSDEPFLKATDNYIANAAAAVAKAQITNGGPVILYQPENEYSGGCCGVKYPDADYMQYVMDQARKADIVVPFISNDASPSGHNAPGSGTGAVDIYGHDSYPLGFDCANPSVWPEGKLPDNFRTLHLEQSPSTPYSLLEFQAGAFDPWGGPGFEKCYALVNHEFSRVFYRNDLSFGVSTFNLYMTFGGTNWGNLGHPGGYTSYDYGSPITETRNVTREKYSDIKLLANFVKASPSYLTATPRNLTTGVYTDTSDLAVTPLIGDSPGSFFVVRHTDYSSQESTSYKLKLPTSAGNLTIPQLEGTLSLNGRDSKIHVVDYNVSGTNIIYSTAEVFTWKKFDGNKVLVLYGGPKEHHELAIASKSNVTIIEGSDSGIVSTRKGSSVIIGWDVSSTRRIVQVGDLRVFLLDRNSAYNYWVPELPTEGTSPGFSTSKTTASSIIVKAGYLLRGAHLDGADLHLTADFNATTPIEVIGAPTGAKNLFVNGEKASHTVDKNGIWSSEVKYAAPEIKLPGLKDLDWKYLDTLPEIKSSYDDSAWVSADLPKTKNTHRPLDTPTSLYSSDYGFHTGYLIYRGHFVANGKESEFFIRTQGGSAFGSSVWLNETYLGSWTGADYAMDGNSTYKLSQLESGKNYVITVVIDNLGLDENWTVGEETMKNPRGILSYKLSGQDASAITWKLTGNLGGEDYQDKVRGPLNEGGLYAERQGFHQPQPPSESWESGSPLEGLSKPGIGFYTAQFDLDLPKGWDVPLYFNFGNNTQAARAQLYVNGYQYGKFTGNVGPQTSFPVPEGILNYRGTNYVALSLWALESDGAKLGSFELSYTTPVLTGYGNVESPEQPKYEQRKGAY
The class given is biochemical.

Assay [5] deals with human cytosolic sialidase NEU2 (Homo sapiens, UniProt Q9Y3R4). Briefly: biochemical. The class given is biochemical. Conditions: for IC50: IC50 with Neu5Acα2–3GalβpNP as sialidase substrate, NEU2.
human cytosolic sialidase NEU2, sequence (Q9Y3R4 whole entry): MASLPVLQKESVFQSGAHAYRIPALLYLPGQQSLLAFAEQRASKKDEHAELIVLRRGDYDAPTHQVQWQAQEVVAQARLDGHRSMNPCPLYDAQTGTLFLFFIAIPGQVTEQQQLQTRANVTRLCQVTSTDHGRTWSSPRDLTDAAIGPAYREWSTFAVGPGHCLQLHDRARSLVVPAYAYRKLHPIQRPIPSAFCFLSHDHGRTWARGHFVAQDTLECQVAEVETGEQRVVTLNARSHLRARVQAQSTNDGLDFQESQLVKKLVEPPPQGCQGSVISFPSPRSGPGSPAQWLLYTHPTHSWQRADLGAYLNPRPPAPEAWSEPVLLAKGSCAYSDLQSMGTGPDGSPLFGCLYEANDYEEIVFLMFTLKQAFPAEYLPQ
Where [6] appears, read: IC50 with Neu5Acα2–3GalβpNP as sialidase substrate.
Where [7] appears, read: IC50 with Neu5Acα2–6GalβpNP as sialidase substrate.

Vibrio cholerae sialidase (type III), sequence (P0C6E9 25-781 limits assumed): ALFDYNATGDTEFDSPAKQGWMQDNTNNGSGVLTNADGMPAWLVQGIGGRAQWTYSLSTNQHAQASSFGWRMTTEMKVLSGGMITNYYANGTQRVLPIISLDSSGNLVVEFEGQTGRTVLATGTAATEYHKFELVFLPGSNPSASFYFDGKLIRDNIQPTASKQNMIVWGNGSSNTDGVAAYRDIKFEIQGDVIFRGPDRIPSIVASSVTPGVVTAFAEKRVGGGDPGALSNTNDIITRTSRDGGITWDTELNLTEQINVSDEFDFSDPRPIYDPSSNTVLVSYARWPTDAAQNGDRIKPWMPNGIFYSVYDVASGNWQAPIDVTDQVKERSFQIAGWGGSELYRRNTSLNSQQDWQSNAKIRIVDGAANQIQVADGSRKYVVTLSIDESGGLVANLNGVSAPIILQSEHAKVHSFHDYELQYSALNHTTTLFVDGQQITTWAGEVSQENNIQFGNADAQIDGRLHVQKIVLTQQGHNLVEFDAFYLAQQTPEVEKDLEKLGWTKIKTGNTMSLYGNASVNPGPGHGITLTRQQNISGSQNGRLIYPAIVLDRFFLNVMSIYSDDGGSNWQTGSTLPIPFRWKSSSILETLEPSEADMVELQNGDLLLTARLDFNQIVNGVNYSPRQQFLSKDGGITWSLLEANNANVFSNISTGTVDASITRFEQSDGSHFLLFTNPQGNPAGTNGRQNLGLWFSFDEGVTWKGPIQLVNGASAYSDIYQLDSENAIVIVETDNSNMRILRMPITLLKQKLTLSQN
Salmonella typhimurium sialidase, sequence (P29768 whole entry): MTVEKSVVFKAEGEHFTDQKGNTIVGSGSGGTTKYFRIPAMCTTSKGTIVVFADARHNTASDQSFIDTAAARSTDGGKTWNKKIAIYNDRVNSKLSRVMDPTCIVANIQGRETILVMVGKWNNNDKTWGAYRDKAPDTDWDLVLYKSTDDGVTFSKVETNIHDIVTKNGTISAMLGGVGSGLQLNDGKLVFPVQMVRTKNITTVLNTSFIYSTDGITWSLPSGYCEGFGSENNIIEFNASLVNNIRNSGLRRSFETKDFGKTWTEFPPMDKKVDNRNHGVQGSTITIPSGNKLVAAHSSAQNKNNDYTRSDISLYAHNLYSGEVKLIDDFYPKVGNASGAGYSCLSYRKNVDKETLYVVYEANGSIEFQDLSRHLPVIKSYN
Streptococcus pneumoniae sialidase NanB, sequence (Q54727 30-697): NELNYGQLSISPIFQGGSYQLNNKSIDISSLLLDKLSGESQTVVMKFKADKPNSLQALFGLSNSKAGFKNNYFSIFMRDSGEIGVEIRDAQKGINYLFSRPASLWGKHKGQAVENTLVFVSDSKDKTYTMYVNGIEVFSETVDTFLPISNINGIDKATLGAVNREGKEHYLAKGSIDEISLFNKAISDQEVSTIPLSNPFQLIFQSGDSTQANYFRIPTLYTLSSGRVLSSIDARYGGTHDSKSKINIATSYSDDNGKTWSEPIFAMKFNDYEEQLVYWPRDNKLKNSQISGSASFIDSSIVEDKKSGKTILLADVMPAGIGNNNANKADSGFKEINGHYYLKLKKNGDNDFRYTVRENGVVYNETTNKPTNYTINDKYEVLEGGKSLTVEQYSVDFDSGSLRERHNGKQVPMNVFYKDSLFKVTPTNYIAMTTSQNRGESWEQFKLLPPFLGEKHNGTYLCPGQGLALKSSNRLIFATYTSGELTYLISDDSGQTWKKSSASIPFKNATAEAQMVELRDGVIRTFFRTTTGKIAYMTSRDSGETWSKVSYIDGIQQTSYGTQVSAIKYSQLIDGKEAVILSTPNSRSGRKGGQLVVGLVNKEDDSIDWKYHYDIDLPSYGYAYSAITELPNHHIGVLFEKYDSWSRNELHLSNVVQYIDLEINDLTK

`CCCNC[C@@H](O)[C@@H](O)[C@@H]1OC(C(=O)O)=C[C@H](O)[C@H]1NC(C)=O` [Neu5Ac9NPro2en (7), 5-Acetamido-9-aminopropyl-2,6-anhydro-3,5,9-trideoxy-D-glycero-D-galacto-non-2-enonic acid]: the IC50 (as a rule, the concentration that inhibits the measured activity by half) was 5.4 mM in assay [1], 2.3 mM in assay [2], over 1000 µM in assay [3] (setting [6]) and over 1000 µM in assay [3] (setting [7]). Besides, the “inhibitory effect against β-galactosidase” value (shortened to “inhibitory effect”) in assay [4] was “no inhibitory effect”.

Turning to `COC[C@@H](O)[C@@H](O)[C@@H]1OC(C(=O)O)=C[C@H](O)[C@H]1NC(C)=O` [Neu5Ac9Me2en (6), 5-Acetamido-2,6-anhydro-3,5-dideoxy-9-O-methyl-D-glycero-D-galacto-non-2-enonic acid], the 50% inhibitory concentration (IC50) in assay [1] was determined as 3 mM; in assay [2], 0.13 mM; in assay [3] (setting [6]), 130 µM; in assay [3] (setting [7]) it was 120 µM; in assay [5], 1100 µM. Besides, the “inhibitory effect” value in assay [4] is “no inhibitory effect”.

As to `CC(=O)N[C@H]1[C@H]([C@H](O)[C@H](O)CN=[N+]=[N-])OC(C(=O)O)=C[C@@H]1O` [Neu5Ac9N32en (3), 5-Acetamido-2,6-anhydro-9-azido-3,5,9-trideoxy-D-glycero-D-galacto-non-2-enonic acid], the IC50 in assay [1] was found to be 3.3 mM; in assay [2] it was 0.21 mM; in assay [3] (setting [7]) it was 8.7 ± 1 µM; in assay [5], 43 ± 2 µM. Besides, the “fold less efficient than Neu5Ac2en (1) against V. cholerae sialidase” value in assay [3] came out at 2.3 fold. The “fold less efficient than Neu5Ac2en (1) against human NEU2” value in assay [5] is given as 2.4 fold. Further, the “inhibitory effect” value in assay [4] was “no inhibitory effect”.

Consider `[N-]=[N+]=NC[C@@H](O)[C@@H](O)[C@@H]1OC(C(=O)O)=C[C@H](O)[C@H]1NC(=O)CO` [Neu5Gc9N32en (4), 2,6-Anhydro-9-azido-3,5,9-trideoxy-5-(2-hydroxyacetamido)-D-glycero-D-galacto-non-2-enonic acid], for which the IC50 in assay [1] is over 10 mM; in assay [2], over 10 mM; in assay [3] (setting [6]), 18 ± 3 µM; in assay [3] (setting [7]), 13 ± 2 µM; in assay [5], 150 µM. Moreover, the “selectivity for V. cholerae sialidase among the five sialidases tested” value in assay [3] is “selective inhibitor”. Further, the “inhibitory effect” value in assay [4] was “no inhibitory effect”.

Consider `CC(=O)N[C@H]1[C@H]([C@H](O)[C@H](O)CO)OC(C(=O)O)=C[C@@H]1O` [Neu5Ac2en (1), 2-deoxy-2,3-dehydro-N-acetylneuraminic acid, reference compound], for which the “inhibitory effect” value in assay [4] is “no inhibitory effect”.

In the case of `[N-]=[N+]=NCC(=O)N[C@H]1[C@H]([C@H](O)[C@H](O)CN=[N+]=[N-])OC(C(=O)O)=C[C@@H]1O` [Neu5AcN39N32en (5), 2,6-Anhydro-9-azido-5-(2-azidoacetamido)-3,5,9-trideoxy-D-glycero-D-galacto-non-2-enonic acid], the IC50 in assay [1] is over 1 mM; in assay [2], 16 mM; in assay [3] (setting [6]), 140 µM; in assay [3] (setting [7]), 110 µM. Further, in assay [4], the “inhibitory effect” value is on record as “no inhibitory effect”.
